Results published in patent US10131652B2, “Pyrimidinyloxy benzene derivatives as herbicides” (E. I. DU PONT DE NEMOURS AND COMPANY, priority 2014, dated 2018).

How the values were obtained:
Format in all cases: in vivo
[1] = system: Italian ryegrass (Lolium multiflorum); experiment: Test B pre-/postemergence plant response
Method in brief: (§1)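 Visual injury scores on a 0–100 scale (100 = complete control) relative to untreated plants, taken about 10 days post-treatment in greenhouse. Treatments were a directed preemergence soil spray and a postemergence spray at one- to two-leaf stage, using surfactant-containing solvent formulation.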

[2] = system: barnyardgrass (Echinochloa crus-galli); experiment: Test B pre-/postemergence plant response
Method in brief: as §1

[3] = system: corn (Zea mays); experiment: Test B pre-/postemergence plant response
Method in brief: as §1

[4] = system: giant foxtail (Setaria faberii); experiment: Test B pre-/postemergence plant response
Method in brief: as §1

[5] = system: kochia (Kochia scoparia); experiment: Test B pre-/postemergence plant response
Method in brief: as §1

[6] = system: pigweed (Amaranthus retroflexus); experiment: Test B pre-/postemergence plant response
Method in brief: as §1

[7] = system: ragweed (common ragweed, Ambrosia elatior); experiment: Test B pre-/postemergence plant response
Method in brief: as §1

[8] = system: wheat (Triticum aestivum); experiment: Test B pre-/postemergence plant response
Method in brief: as §1

[9] = system: blackgrass (Alopecurus myosuroides); experiment: Test B postemergence plant response
Method in brief: (§2)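 Visual injury ratings, 0 = no effect to 100 = complete control, versus untreated controls approximately 10 days after postemergence spraying in greenhouse. Plants were at one- to two-leaf stage, 2 to 10 cm tall, in loam soil/sand blend; a dash denotes no result.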

[10] = system: galium (catchweed bedstraw, Galium aparine); experiment: Test B postemergence plant response
Method in brief: as §2

[11] = system: barnyardgrass (Echinochloa crus-galli); experiment: Test C flooded paddy test plant response; conditions: Flood, 250 g ai/ha; scale of 0 to 100 where 0 is no effect and 100 is complete control; 13 to 15 days
Method in brief: (§3)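 Flooded-pot format, 3 cm water over soil maintained for the test duration; test compounds dispensed into the water at the 2-leaf stage. Greenhouse holding 13 to 15 days. Plants evaluated visually relative to untreated controls, 0 meaning no effect and 100 complete control.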

[12] = system: ducksalad (Heteranthera limosa); experiment: Test C flooded paddy test plant response; conditions: Flood, 250 g ai/ha; scale of 0 to 100 where 0 is no effect and 100 is complete control; 13 to 15 days
Method in brief: as §3

[13] = system: rice (Oryza sativa); experiment: Test C flooded paddy test plant response; conditions: Flood, 250 g ai/ha; scale of 0 to 100 where 0 is no effect and 100 is complete control; 13 to 15 days
Method in brief: as §3

[14] = system: small-flower umbrella sedge (Cyperus difformis); experiment: Test C flooded paddy test plant response; conditions: Flood, 250 g ai/ha; scale of 0 to 100 where 0 is no effect and 100 is complete control; 13 to 15 days
Method in brief: as §3

[15] = system: chickweed (common chickweed, Stellaria media); experiment: Test D postemergence plant response; conditions: for Chickweed plant response rating: scale 0 to 100 (0 no effect, 100 complete control); for Plant response rating, Chickweed: scale 0 to 100, 0 no effect, 100 complete control
Method in brief: (§4)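 Visual 0–100 rating vs controls (0 = no effect, 100 = complete control), scored 13–15 d after postemergence spray. Plants 1- to 4-leaf stage (2–18 cm), potted in peat/vermiculite mix, kept in greenhouse.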

[16] = system: kochia (Kochia scoparia); experiment: Test D postemergence plant response; conditions: for Plant response rating (scale 0 to 100), Kochia: 16 g ai/ha; for Kochia plant response rating: 31 g ai/ha, scale 0 to 100 (0 no effect, 100 complete control); for Plant response rating, Kochia: scale 0 to 100, 0 no effect, 100 complete control
Method in brief: as §4

[17] = system: wild oat (Avena fatua); experiment: Test D postemergence plant response; conditions: for Plant response rating (scale 0 to 100), Oat, Wild: 16 g ai/ha
Method in brief: as §4

[18] = 31 g ai/ha, Preemergence, 0 to 100 scale where 0 is no effect and 100 is complete control
[19] = 125 g ai/ha, postemergence, 0 to 100 scale, 0 no effect, 100 complete control
[20] = Postemergence, 31 g ai/ha, 0 to 100 scale (0 no effect, 100 complete control)
[21] = Preemergence, 125 g ai/ha, 0 to 100 scale (0 no effect, 100 complete control)
[22] = 31 g ai/ha, scale 0 to 100 (0 no effect, 100 complete control)
[23] = 62 g ai/ha, scale 0 to 100, 0 no effect, 100 complete control
[24] = 125 g ai/ha, scale 0 to 100, 0 no effect, 100 complete control
[25] = 31 g ai/ha, Postemergence, 0 to 100 scale, 0 no effect, 100 complete control
[26] = Preemergence, 125 g ai/ha, 0 to 100 scale where 0 is no effect and 100 is complete control

CC(F)(F)c1cc(-c2ccccc2Oc2ncc(Cl)cn2)on1 [Compound 178]
20: Plant response rating, Barnyardgrass [2, 18] | Plant response rating, Corn [3, 19] | Kochia plant response rating [5, 21]
40: Plant response rating, Barnyardgrass [2, 19] | Plant response rating, Blackgrass [9, 19] | Barnyardgrass plant response rating [11]
0: Plant response rating, Ryegrass, Italian [1, 18] | Plant response rating, Ryegrass, Italian [1, 20] | Plant response rating, Barnyardgrass [2, 20] | Plant response rating, Corn [3, 20] | Plant response rating, Ragweed [7, 18] | Ragweed plant response rating [7, 21] | Plant response rating, Wheat [8, 20] | Rice plant response rating [13] | Plant response rating (scale 0 to 100), Oat, Wild [17] | Oat, Wild plant response rating [17, 22]
100: Plant response rating, Kochia [5, 19] | Plant response rating, Pigweed [6, 19] | Plant response rating, Pigweed [6, 20] | Pigweed plant response rating [6, 21] | Plant response rating, Galium [10, 19] | Plant response rating, Kochia ([16]; 62 g ai/ha) | Plant response rating, Kochia ([16]; 125 g ai/ha)
60: Plant response rating, Foxtail, Giant [4, 18] | Plant response rating, Foxtail, Giant [4, 19] | Plant response rating, Chickweed ([15]; 62 g ai/ha)
80: Plant response rating, Kochia [5, 20] | Plant response rating, Galium [10, 20] | Plant response rating, Chickweed ([15]; 125 g ai/ha)
30: Plant response rating, Ryegrass, Italian [1, 19]
95: Kochia plant response rating [16]
70: Barnyardgrass plant response rating [2, 21]
50: Plant response rating (scale 0 to 100), Chickweed ([15]; 16 g ai/ha) | Chickweed plant response rating ([15]; 31 g ai/ha)
90: Foxtail, Giant plant response rating [4, 21] | Plant response rating, Pigweed [6, 18] | Ducksalad plant response rating [12] | Plant response rating (scale 0 to 100), Kochia [16]
10: Ryegrass, Italian plant response rating [1, 21] | Plant response rating, Foxtail, Giant [4, 20] | Plant response rating, Kochia [5, 18] | Plant response rating, Ragweed [7, 19] | Plant response rating, Ragweed [7, 20] | Plant response rating, Wheat [8, 19] | Plant response rating, Blackgrass [9, 20]
5: Oat, Wild plant response rating [17, 23] | Plant response rating, Oat, Wild [17, 24]
85: Sedge, Umbrella plant response rating [14]

Fc1cccc(Oc2ncc(Cl)cn2)c1-c1cc(C(F)(F)F)no1 [Compound 228]
55: Plant response rating, Oat, Wild [17, 24]
30: Plant response rating, Ryegrass, Italian [1, 18] | Plant response rating, Barnyardgrass [2, 20] | Plant response rating, Corn [3, 19] | Plant response rating, Ragweed [7, 20] | Ragweed plant response rating [7, 21]
50: Plant response rating, Barnyardgrass [2, 18] | Plant response rating, Wheat [8, 19]
85: Ducksalad plant response rating [12] | Plant response rating (scale 0 to 100), Chickweed ([15]; 16 g ai/ha) | Chickweed plant response rating ([15]; 31 g ai/ha)
0: Plant response rating, Ragweed [7, 18] | Plant response rating, Wheat [8, 20] | Rice plant response rating [13]
20: Plant response rating, Ryegrass, Italian [1, 20] | Plant response rating, Corn [3, 20] | Oat, Wild plant response rating [17, 22]
90: Plant response rating, Ryegrass, Italian [1, 19] | Plant response rating, Foxtail, Giant [4, 18] | Plant response rating, Foxtail, Giant [4, 19] | Sedge, Umbrella plant response rating [14]
98: Plant response rating, Chickweed ([15]; 62 g ai/ha)
60: Plant response rating, Blackgrass [9, 20]
100: Barnyardgrass plant response rating [2, 21] | Foxtail, Giant plant response rating [4, 21] | Plant response rating, Kochia [5, 19] | Plant response rating, Kochia [5, 20] | Kochia plant response rating [5, 21] | Plant response rating, Pigweed [6, 18] | Plant response rating, Pigweed [6, 19] | Plant response rating, Pigweed [6, 20] | Pigweed plant response rating [6, 21] | Plant response rating, Blackgrass [9, 19] | Plant response rating, Galium [10, 19] | Plant response rating, Galium [10, 20] | Plant response rating, Chickweed ([15]; 125 g ai/ha) | Plant response rating (scale 0 to 100), Kochia [16] | Kochia plant response rating [16] | Plant response rating, Kochia ([16]; 62 g ai/ha) | Plant response rating, Kochia ([16]; 125 g ai/ha)
40: Plant response rating, Foxtail, Giant [4, 20] | Plant response rating, Ragweed [7, 19] | Barnyardgrass plant response rating [11] | Oat, Wild plant response rating [17, 23]
10: Plant response rating (scale 0 to 100), Oat, Wild [17]
70: Ryegrass, Italian plant response rating [1, 21] | Plant response rating, Barnyardgrass [2, 19] | Plant response rating, Kochia [5, 18]

FC(F)c1cc(-c2c(Cl)cccc2Oc2ncc(Br)cn2)on1 [Compound 121]
0: Plant response rating, Wheat [8, 25]
80: Plant response rating, Blackgrass [9, 19]
70: Plant response rating, Ryegrass, Italian [1, 19] | Plant response rating, Barnyardgrass [2, 18] | Plant response rating, Foxtail, Giant [4, 25] | Plant response rating, Oat, Wild [17, 23] | Plant response rating, Oat, Wild [17, 24]
30: Plant response rating, Ryegrass, Italian [1, 18] | Plant response rating, Wheat [8, 19]
50: Plant response rating, Ryegrass, Italian [1, 25] | Plant response rating, Barnyardgrass [2, 25] | Plant response rating, Ragweed [7, 25] | Plant response rating, Blackgrass [9, 25]
100: Plant response rating, Foxtail, Giant [4, 18] | Plant response rating, Foxtail, Giant [4, 26] | Plant response rating, Kochia [5, 26] | Plant response rating, Pigweed [6, 25] | Plant response rating, Pigweed [6, 18] | Plant response rating, Pigweed [6, 19] | Plant response rating, Galium [10, 25] | Plant response rating, Galium [10, 19] | Chickweed plant response rating ([15]; 31 g ai/ha) | Plant response rating, Chickweed ([15]; 62 g ai/ha) | Plant response rating, Chickweed ([15]; 125 g ai/ha) | Kochia plant response rating [16] | Plant response rating, Kochia ([16]; 62 g ai/ha) | Plant response rating, Kochia ([16]; 125 g ai/ha)
45: Rice plant response rating [13] | Oat, Wild plant response rating [17, 22]
10: Plant response rating, Ragweed [7, 18]
60: Plant response rating, Kochia [5, 18] | Plant response rating, Ragweed [7, 19] | Barnyardgrass plant response rating [11]
20: Plant response rating, Corn [3, 25]
95: Chickweed plant response rating ([15]; 16 g ai/ha)
40: Plant response rating, Corn [3, 19]
90: Plant response rating, Barnyardgrass [2, 19] | Plant response rating, Barnyardgrass [2, 26] | Plant response rating, Foxtail, Giant [4, 19] | Plant response rating, Kochia [5, 25] | Plant response rating, Kochia [5, 19] | Ducksalad plant response rating [12] | Sedge, Umbrella plant response rating [14]
